Results on one compound are retold here after US5811408A, “2'-deoxy-2'-(substituted or unsubstituted)methylidene-4'-thionucleosides” (Yamasa Corporation, priority 1994, dated 1998).

For experiment [1], the system named is Mia-PaCa-2. Put plainly: Proliferation Inhibitory Activity on Cultured Cells (in vitro test, MTT), Mia-PaCa-2. The class given is cell-based. To be noted: Homo sapiens; Mia-PaCa-2, Pancreas carcinoma; 72 hours, 37° C. The method, then:
(§1) Proliferation Inhibitory Activity on Cultured Cells (in vitro test)
(§2) Cells in the logarithmic growth phase were suspended in a medium for inoculation, and seeded into each well of a 96-well plate so that the number of the cells would be 3×10^3 /180 microliters/well. To each well was added 20 microliters of a sample solution or water, and incubation was carried out at 37° C. for 72 hours. After incubation, 25 microliters of an MTT solution (2 mg/ml, prepared in PBS) was added, and incubation was further conducted at 37° C. for 4 hours. The medium was removed, and the MTT-formazane formed was dissolved in 200 microliters of dimethyl sulfoxide. The absorbance at 540 nm of this solution was measured by a microplate reader. The proliferation inhibitory rate obtained by calculation was plotted on a graph paper against the concentration of the sample. Then, the 50% inhibitory concentration (IC50) was determined for evaluation of the antitumor effect.
(§3) The results of the test carried out by using the compound of the present invention (the beta-anomer of 2'-deoxy-2'-methylidene-4'-thiocytidine synthesized in Example 1) are shown in Table 1.

Experiment [2] has as its system NUGC-4. Put plainly: Proliferation Inhibitory Activity on Cultured Cells (in vitro test, MTT), NUGC-4. The class given is cell-based. The conditions noted are these: Homo sapiens; NUGC-4, Stomach adenocarcinoma; 72 hours, 37° C. The protocol: as §1, §2, §3
Experiment [3] has as its system murine P388 leukemia cells. The experiment in a line: Antitumor Activity in mice bearing P388 leukemia (in vivo test). To be noted: BDF1 mice, 10 mg/kg intraperitoneally once a day, Day 1, 2, 5, 6. The protocol:
Antitumor Activity in mice bearing P388 leukemia (in vivo test)
DBA/2 mice were intraperitoneally inoculated with murine P388 leukemia cells. On day 0, ascites was collected from the DBA/2 mice, and P388 leukemia cells were intraperitoneally implanted into BDF1 mice so that the number of the cells would be 1×10^6 /mouse. A sample was dissolved in dimethyl sulfoxide, and this sample solution was intraperitoneally administered to the mice once a day. The antitumor effect was evaluated by comparing the survival time of the administered group with that of the control group.
The results of the test carried out by using the compound of the present invention (the beta-anomer of 2'-deoxy-2'-methylidene-4'-thiocytidine synthesized in Example 1) are shown in Table 2.

Experiment [4] concerns HT1080. Put plainly: Proliferation Inhibitory Activity on Cultured Cells (in vitro test, MTT), HT1080. To be noted: Homo sapiens, HT-1080; HT1080, Soft tissue sarcoma; 72 hours, 37° C. Type of experiment: cell-based. The method, then: as §1, §2, §3
Experiment [5] deals with KKLS. The experiment in a line: Proliferation Inhibitory Activity on Cultured Cells (in vitro test, MTT), KKLS. Type of experiment: cell-based. To be noted: Stomach adenocarcinoma, 72 hours, 37° C. The method, then:
as §1, §2, §3

Experiment [6] concerns murine S-180 cells. The experiment in a line: Antitumor Activity in Mice Implanted with S-180 Cells (in vivo test). To be noted: ICR mice, caudal vein, days 1-5 and 7-10; for Weight of Tumor (mean value ± SE): tumor removed on day 35, control 8.70 ± 1.31; for Inhibitory Rate: tumor weight on day 35. From the text:
Antitumor Activity in Mice Implanted with S-180 Cells (in vivo test)
ICR mice were intraperitoneally inoculated with murine S-180 cells. On day 0, ascites was collected from the ICR mice, and Sarcoma 180 cells were subcutaneously implanted into ICR mice so that the number of the cells would be 5×10^6 /mouse. A sample was suspended in Macrogol-400/Tween 80 (6:0.8) so that the concentration thereof would be 10 times the concentration at the time of the administration thereof. Thereafter, the suspension was diluted to 1/10 with physiological saline, and injected once a day into the caudal vein of the mice on days 1-5, and on days 7-10. The antitumor effect (inhibitory rate) was evaluated by measuring the weight of the tumor removed on day 35.
The results of the test carried out by using the compound of the present invention (the beta-anomer of 2'-deoxy-2'-methylidene-4'-thiocytidine synthesized in Example 1) are shown in Table 3.

Experiment [7] concerns MG-63. The experiment in a line: Proliferation Inhibitory Activity on Cultured Cells (in vitro test, MTT), MG-63. The class given is cell-based. To be noted: Homo sapiens; MG-63, Osteosarcoma; 72 hours, 37° C. The protocol:
as §1, §2, §3

Experiment [8] concerns SK-Mel-28. Put plainly: Proliferation Inhibitory Activity on Cultured Cells (in vitro test, MTT), SK-Mel-28. The class given is cell-based. The conditions noted are these: Homo sapiens; SK-Mel-28, Melanoma; 72 hours, 37° C. The protocol: as §1, §2, §3
In experiment [9] the test system is MCF-7. Put plainly: Proliferation Inhibitory Activity on Cultured Cells (in vitro test, MTT), MCF-7. To be noted: Homo sapiens, MCF7; MCF-7, Breast carcinoma; 72 hours, 37° C. The class given is cell-based. The protocol: as §1, §2, §3
Experiment [10] deals with QG-90. Put plainly: Proliferation Inhibitory Activity on Cultured Cells (in vitro test, MTT), QG-90. The conditions noted are these: Homo sapiens; QG-90, Small cell lung carcinoma; 72 hours, 37° C. Type of experiment: cell-based. The protocol: as §1, §2, §3
In experiment [11] the test system is Lu-65. Put plainly: Proliferation Inhibitory Activity on Cultured Cells (in vitro test, MTT), Lu-65. The conditions noted are these: Homo sapiens; Lu-65, Large cell lung carcinoma; 72 hours, 37° C. Type of experiment: cell-based. The protocol:
as §1, §2, §3

Experiment [12] has as its system PC-10. Put plainly: Proliferation Inhibitory Activity on Cultured Cells (in vitro test, MTT), PC-10. The class given is cell-based. To be noted: Homo sapiens, PC10; PC-10, Lung squamous cell carcinoma; 72 hours, 37° C. The protocol: as §1, §2, §3
The subject of experiment [13] is KK-47. The experiment in a line: Proliferation Inhibitory Activity on Cultured Cells (in vitro test, MTT), KK-47. The class given is cell-based. To be noted: Homo sapiens; KK-47, Bladder carcinoma; 72 hours, 37° C. The method, then:
as §1, §2, §3

The test system of experiment [14] is QG-96. The experiment in a line: Proliferation Inhibitory Activity on Cultured Cells (in vitro test, MTT), QG-96. To be noted: QG-96, Small cell lung carcinoma; 72 hours, 37° C. The class given is cell-based. The protocol: as §1, §2, §3
Experiment [15] has as its system HEp-2. The experiment in a line: Proliferation Inhibitory Activity on Cultured Cells (in vitro test, MTT), HEp-2. The class given is cell-based. The conditions noted are these: Homo sapiens; HEp-2, Esophagus carcinoma; 72 hours, 37° C. The protocol: as §1, §2, §3
Experiment [16] relates to HCT-15. The experiment in a line: Proliferation Inhibitory Activity on Cultured Cells (in vitro test, MTT), HCT-15. Type of experiment: cell-based. To be noted: Homo sapiens; HCT-15, Colon adenocarcinoma; 72 hours, 37° C. The method, then:
as §1, §2, §3

For experiment [17], the system named is HOS. The experiment in a line: Proliferation Inhibitory Activity on Cultured Cells (in vitro test, MTT), HOS. The class given is cell-based. To be noted: Homo sapiens, Osteosarcoma, 72 hours, 37° C. The method, then:
as §1, §2, §3

Experiment [18] has as its system A375. Put plainly: Proliferation Inhibitory Activity on Cultured Cells (in vitro test, MTT), A375. The class given is cell-based. To be noted: Homo sapiens, A-375; A375, Melanoma; 72 hours, 37° C. The method, then:
as §1, §2, §3

For experiment [19], the system named is Colo320DM. Put plainly: Proliferation Inhibitory Activity on Cultured Cells (in vitro test, MTT), Colo320DM. Type of experiment: cell-based. The conditions noted are these: Homo sapiens, COLO 320DM, Colon adenocarcinoma, 72 hours, 37° C. The protocol:
as §1, §2, §3

Values after ≈ are worked out from the molar mass of the structure shown.

In the case of `C=C1[C@H](n2ccc(N)nc2=O)S[C@H](CO)[C@H]1O` [Compound of the Invention, 2'-deoxy-2'-methylidene-4'-thiocytidine], the IC50 was 2.4 µg/mL (≈ 9.4 µM) in experiment [1]; 0.6 µg/mL (≈ 2.35 µM) in experiment [2]; 0.21 µg/mL (≈ 0.823 µM) in experiment [4]; 0.77 µg/mL (≈ 3.02 µM) in [5]; 0.53 µg/mL (≈ 2.08 µM) in experiment [7]; 0.092 µg/mL (≈ 0.36 µM) in experiment [8]. Further, the IC50 was determined as 0.3 µg/mL (≈ 1.18 µM) in experiment [9]; 0.32 µg/mL (≈ 1.25 µM) in experiment [10]; 0.075 µg/mL (≈ 0.294 µM) in [11]; 1.5 µg/mL (≈ 5.88 µM) in experiment [12]; 0.38 µg/mL (≈ 1.49 µM) in experiment [13]; 0.5 µg/mL (≈ 1.96 µM) in experiment [14]. Also, the 50% inhibitory concentration (IC50) in experiment [15] was found to be 4.1 µg/mL (≈ 16.1 µM); in experiment [16], 0.65 µg/mL (≈ 2.55 µM); in [17] it was 0.45 µg/mL (≈ 1.76 µM); in experiment [18] it was 0.25 µg/mL (≈ 0.979 µM); in experiment [19], 0.06 µg/mL (≈ 0.235 µM). Besides, the “MST (Median survival time)” value in experiment [3] (control (DMSO) 9.0 days) is 12.0 days. The compound further showed a T/C in [3] (survival vs control (DMSO) = 100) of 133%. In addition, the “Weight of Tumor (mean value ± SE)” value in [6] (20 mg/kg/day) was 6.39 ± 1.07; in [6] (100 mg/kg/day), 0.80 ± 0.24. Further, the “Inhibitory Rate” value in experiment [6] (20 mg/kg/day) is recorded as 26.6%; in experiment [6] (100 mg/kg/day), 90.8%.

What is called IC50 is the concentration at which inhibition is half-maximal. The low end stands for inhibition by little substance, the high end for a need for much substance. For orientation: T/C means the ratio of treated to control.
